Measurements published in US20090131304A1, “Semi-Synthetic Desmethyl-Vancomycin-Based Glycopeptides With Antibiotic Activity” (Novartis Vaccines and Diagnostics, Inc., priority 2005, published 2009).
In brackets after ≈: the same amount, converted by molar mass. Where two headings read alike, the source gives them in different places.

Tests used:
Assay type in all cases: cell-based
[1] = system: glycopeptide-intermediate Staphylococus aureus (GISA) (D); assay: MIC, NCCLS microdilution broth procedure, GISA (D)
Protocol: (§1) The following table identifies specific species of compounds according to the present invention and information concerning their associated antibacterial activity. The antibacterial activity of three compounds in accordance with the present invention (N-biphenyl-methyl-norvacomycin (A); N-chloro-biphenyl-methyl-norvacomycin (B) and desmethyl-vancomycin-gly-p-n-octyloxybenzyl (C)) were tested and compared to unmodified vancomycin (Van) and norvancoycin (Nor). MIC (minimum inhibitory concentration) was measured according to NCCLS standards using the microdilution broth procedure. Serial dilutions of the compounds were placed in a 96-well microplate containing Mueller-Hinton medium. Based on absorbance of 600 nm, diluted overnight cultures were placed in the wells at a final concentration of 5×10^5 cfu/mL. The plate was then placed in a culture box at 35° C. The next day, MIC was determined by visual observation of the plates.
(§2) The glycopeptides were tested against a variety of strains well known in the art for such testing, including methicillin-susceptible Staphylococus aureus (MSSA), methicillin-susceptible Staphylococus epidermidis (MSSE), methicillin-resistant Staphylococus aureus (MRSA), methicillin-resistant Staphylococus epidermidis (MRSE), and glycopeptide-intermediate Staphylococus aureus (GISA). Results are shown in the Table 1 as minimum inhibitory concentration (MIC) in units of μg/ml: […]

[2] = system: methicillin-susceptible Staphylococus epidermidis (MSSE); assay: MIC, NCCLS microdilution broth procedure, MSSE; settings: for MIC: read-out: minimum inhibitory concentration (MIC)
Protocol: as §1, §2

[3] = system: methicillin-resistant Staphylococus aureus (MRSA); assay: MIC, NCCLS microdilution broth procedure, MRSA; settings: for MIC: Staphylococcus aureus, MRSA
Protocol: as §1, §2

[4] = system: glycopeptide-intermediate Staphylococus aureus (GISA) (V); assay: MIC, NCCLS microdilution broth procedure, GISA (V)
Protocol: as §1, §2

[5] = system: methicillin-susceptible Staphylococus aureus (MSSA); assay: MIC, NCCLS microdilution broth procedure, MSSA; settings: for MIC: Staphylococcus aureus, read-out: minimum inhibitory concentration (MIC)
Protocol: as §1, §2

[6] = system: methicillin-resistant Staphylococus epidermidis (MRSE); assay: MIC, NCCLS microdilution broth procedure, MRSE; settings: for MIC: Staphylococcus epidermidis, read-out: minimum inhibitory concentration (MIC)
Protocol: as §1, §2

[7] = read-out: minimum inhibitory concentration (MIC)
[8] = GISA (D) strain # 68, read-out: minimum inhibitory concentration (MIC)
[9] = MRSA strain # 134, read-out: minimum inhibitory concentration (MIC)
[10] = MRSA strain # 143, read-out: minimum inhibitory concentration (MIC)
[11] = GISA (V) strain # 68, read-out: minimum inhibitory concentration (MIC)
[12] = GISA (V) strain # 143, read-out: minimum inhibitory concentration (MIC)

SMILES	minimum inhibitory concentration (MIC) ([1]; GISA (D) strain # 143) [µg/mL]	minimum inhibitory concentration (MIC) ([2]; MSSE strain # 10) [µg/mL]	MIC [2] [µg/mL]	minimum inhibitory concentration (MIC) ([5]; MSSA strain # 83) [µg/mL]	MIC ([5]; MSSA) [µg/mL]	minimum inhibitory concentration (MIC) ([6]; MRSE strain # 25) [µg/mL]	minimum inhibitory concentration (MIC) ([6]; MRSE strain # 26) [µg/mL]	MIC ([6]; MRSE) [µg/mL]	minimum inhibitory concentration (MIC) ([3]; MRSA strain # 143) [µg/mL]	minimum inhibitory concentration (MIC) ([4]; GISA (V) strain # 143) [µg/mL]	MIC [1, 8] [µg/mL]	MIC ([2]; MSSE strain # 3) [µg/mL]	MIC [3, 9] [µg/mL]	MIC [3, 10] [µg/mL]	MIC [4, 11] [µg/mL]	MIC [4, 12] [µg/mL]	MIC ([5]; MSSA strain # 68) [µg/mL]	MIC ([6]; MRSE strain # 24) [µg/mL]	further results
CCCCCCCCOc1ccc(CNCC(=O)N[C@@]2(C)C[C@H](OC3C(Oc4c5cc6cc4Oc4ccc(cc4Cl)[C@@H](O)[C@@H](NC(=O)[C@@H](N)CC(C)C)C(=O)N[C@@H](CC(N)=O)C(=O)N[C@H]6C(=O)N[C@H]4C(=O)NC(C(=O)N[C@H](C(=O)O)c6cc(O)cc(O)c6-c6cc4ccc6O)[C@H](O)c4ccc(c(Cl)c4)O5)O[C@H](CO)[C@@H](O)[C@@H]3O)O[C@@H](C)[C@H]2O)cc1 (some centres unmarked) [Compound C, Desmethyl-vancomycin-Gly-p-n-Octyloxybenzyl]	4 (≈ 2.34 µM)	1 (≈ 0.585 µM)	1 (≈ 0.585 µM)	2 (≈ 1.17 µM)	2 (≈ 1.17 µM)	2 (≈ 1.17 µM)	2 (≈ 1.17 µM)	2 (≈ 1.17 µM)	–	–	–	–	–	–	–	–	–	–	MIC [1, 7]: 4 µg/mL (≈ 2.34 µM); MIC ([3]; read-out: minimum inhibitory concentration (MIC), MRSA strain # 134): 2 µg/mL (≈ 1.17 µM); MIC ([3]; read-out: minimum inhibitory concentration (MIC), MRSA strain # 143): 1 µg/mL (≈ 0.585 µM); MIC ([4]; read-out: minimum inhibitory concentration (MIC), GISA (V) strain # 68): 4 µg/mL (≈ 2.34 µM); MIC ([4]; read-out: minimum inhibitory concentration (MIC), GISA (V) strain # 143): 2 µg/mL (≈ 1.17 µM)
CN[C@H](CC(C)C)C(=O)N[C@H]1C(=O)N[C@@H](CC(N)=O)C(=O)N[C@H]2C(=O)N[C@H]3C(=O)N[C@H](C(=O)N[C@H](C(=O)O)c4cc(O)cc(O)c4-c4cc3ccc4O)[C@H](O)c3ccc(c(Cl)c3)Oc3cc2cc(c3O[C@@H]2O[C@H](CO)[C@@H](O)[C@H](O)[C@H]2O[C@H]2C[C@](C)(N)[C@H](O)[C@H](C)O2)Oc2ccc(cc2Cl)[C@H]1O [Van, vancomycin]	–	2 (≈ 1.38 µM)	2 (≈ 1.38 µM)	2 (≈ 1.38 µM)	2 (≈ 1.38 µM)	2 (≈ 1.38 µM)	2 (≈ 1.38 µM)	2 (≈ 1.38 µM)	2 (≈ 1.38 µM)	8 (≈ 5.52 µM)	–	–	–	–	–	–	–	–	MIC ([1]; read-out: minimum inhibitory concentration (MIC), GISA (D) strain # 68): 8 µg/mL (≈ 5.52 µM); MIC ([1]; read-out: minimum inhibitory concentration (MIC), GISA (D) strain # 143): 4 µg/mL (≈ 2.76 µM); MIC [3, 7]: 2 µg/mL (≈ 1.38 µM); MIC [4, 7]: 8 µg/mL (≈ 5.52 µM)
CC(C)C[C@@H](N)C(=O)N[C@H]1C(=O)N[C@@H](CC(N)=O)C(=O)N[C@H]2C(=O)N[C@H]3C(=O)N[C@H](C(=O)N[C@H](C(=O)O)c4cc(O)cc(O)c4-c4cc3ccc4O)[C@H](O)c3ccc(c(Cl)c3)Oc3cc2cc(c3O[C@@H]2O[C@H](CO)[C@@H](O)[C@H](O)[C@H]2O[C@H]2C[C@](C)(N)[C@H](O)[C@H](C)O2)Oc2ccc(cc2Cl)[C@H]1O [Nor, norvancoycin, reference compound]	4 (≈ 2.79 µM)	2 (≈ 1.39 µM)	–	2 (≈ 1.39 µM)	–	2 (≈ 1.39 µM)	2 (≈ 1.39 µM)	–	2 (≈ 1.39 µM)	8 (≈ 5.57 µM)	–	–	–	–	–	–	–	–	minimum inhibitory concentration (MIC) ([1]; GISA (D) strain # 68): 4 µg/mL (≈ 2.79 µM); minimum inhibitory concentration (MIC) ([2]; MSSE strain # 3): 2 µg/mL (≈ 1.39 µM); minimum inhibitory concentration (MIC) ([3]; MRSA strain # 134): 2 µg/mL (≈ 1.39 µM); minimum inhibitory concentration (MIC) ([4]; GISA (V) strain # 68): 4 µg/mL (≈ 2.79 µM); minimum inhibitory concentration (MIC) ([5]; MSSA strain # 68): 2 µg/mL (≈ 1.39 µM); minimum inhibitory concentration (MIC) ([6]; MRSE strain # 24): 2 µg/mL (≈ 1.39 µM)
CC(C)C[C@H](N)C(=O)N[C@H]1C(=O)N[C@@H](CC(N)=O)C(=O)N[C@H]2C(=O)N[C@H]3C(=O)NC(C(=O)N[C@H](C(=O)O)c4cc(O)cc(O)c4-c4cc3ccc4O)[C@H](O)c3ccc(c(Cl)c3)Oc3cc2cc(c3OC2O[C@H](CO)[C@@H](O)[C@H](O)C2O[C@H]2C[C@](C)(NCc3ccc(-c4ccccc4)cc3)[C@H](O)[C@H](C)O2)Oc2ccc(cc2Cl)[C@H]1O (some centres unmarked) [Compound A, N-Biphenyl-Methyl-Desmethyl-vancomycin]	8 (≈ 5 µM)	4 (≈ 2.5 µM)	–	2 (≈ 1.25 µM)	–	4 (≈ 2.5 µM)	4 (≈ 2.5 µM)	–	–	–	8 (≈ 5 µM)	4 (≈ 2.5 µM)	2 (≈ 1.25 µM)	4 (≈ 2.5 µM)	8 (≈ 5 µM)	4 (≈ 2.5 µM)	2 (≈ 1.25 µM)	4 (≈ 2.5 µM)	–
CC(C)C[C@H](N)C(=O)N[C@H]1C(=O)N[C@@H](CC(N)=O)C(=O)N[C@H]2C(=O)N[C@H]3C(=O)NC(C(=O)N[C@H](C(=O)O)c4cc(O)cc(O)c4-c4cc3ccc4O)[C@H](O)c3ccc(c(Cl)c3)Oc3cc2cc(c3OC2O[C@H](CO)[C@@H](O)[C@H](O)C2O[C@H]2C[C@](C)(NCc3ccc(-c4ccc(Cl)cc4)cc3)[C@H](O)[C@H](C)O2)Oc2ccc(cc2Cl)[C@H]1O (some centres unmarked) [Compound B, N-Chloro-Biphenyl-Methyl-Desmethyl-vancomycin]	1 (≈ 0.611 µM)	0.5 (≈ 0.306 µM)	–	0.5 (≈ 0.306 µM)	–	0.5 (≈ 0.306 µM)	0.5 (≈ 0.306 µM)	–	–	–	1 (≈ 0.611 µM)	0.5 (≈ 0.306 µM)	0.5 (≈ 0.306 µM)	0.5 (≈ 0.306 µM)	1 (≈ 0.611 µM)	1 (≈ 0.611 µM)	0.5 (≈ 0.306 µM)	0.5 (≈ 0.306 µM)	–
